Reference: patent publication US9556221B2, “N-acetyl amino acid ESTER derivatives of betulin and preparation method thereof” (Northeast Forestry University, priority 2014, dated 2017)

Experiments:
Assay type in all cases: cell-based
[1] = system: Human colon tumor cell lines HT29; assay: MTT assay, in vitro anti-tumor activity screening, HT29; details: HT-29, HT29 colon tumor cell line, read-out: half inhibitory concentration IC50, HT29
From the text: (§1) The present invention also relates to the application of the N-acetyl amino acid ester derivatives of betulin for the preparation of anti-tumor drugs.
(§2) Human colon tumor cell lines HT29, pancreatic cancer cell lines MPC2 and ovarian cancer cell lines MDAH2774 were selected to determine the half inhibitory concentrations (IC50s) of the N-acetyl amino acid ester derivatives of betulin, betulinic acid and betulin, and the results are shown in Table 2.

[2] = system: ovarian cancer cell lines MDAH2774; assay: MTT assay, in vitro anti-tumor activity screening, MDAH2774; details: Homo sapiens, MDAH 2774, MDAH2774 ovarian cancer cell line, read-out: half inhibitory concentration IC50, MDAH2774
From the text: as §1, §2

[3] = system: pancreatic cancer cell lines MPC2; assay: MTT assay, in vitro anti-tumor activity screening, MPC2; details: Homo sapiens, MPC2 pancreatic cancer cell line, read-out: half inhibitory concentration IC50, MPC2
From the text: as §1, §2

Row | SMILES | IC50 [1] [µM] | IC50 [2] [µM] | IC50 [3] [µM]
1 | C=C(C)[C@@H]1CC[C@]2(CO)CC[C@]3(C)[C@H](CC[C@@H]4[C@@]5(C)CC[C@H](O)C(C)(C)[C@@H]5CC[C@]43C)[C@@H]12 [Betulin, Lup-20(29)-ene-3β,28-diol] | > 100 | > 100 | > 100
2 | C=C(C)[C@@H]1CC[C@]2(C(=O)O)CC[C@]3(C)[C@H](CC[C@@H]4[C@@]5(C)CC[C@H](O)C(C)(C)[C@@H]5CC[C@]43C)[C@@H]12 [Betulinic acid, reference compound] |  | 39.5 ± 2.19 | 38.6 ± 2.91
3 | C=C(C)[C@@H]1CC[C@]2(COC(=O)C(C)NC(C)=O)CC[C@]3(C)C(CC[C@@H]4[C@@]5(C)CC[C@H](O)C(C)(C)[C@@H]5CC[C@]43C)[C@@H]12 (some centres unmarked) [YWZ-002] | 6.58 ± 0.24 | 10.6 ± 0.62 | 4.24 ± 0.23
4 | C=C(C)[C@@H]1CC[C@]2(COC(=O)C(NC(C)=O)C(C)C)CC[C@]3(C)C(CC[C@@H]4[C@@]5(C)CC[C@H](O)C(C)(C)[C@@H]5CC[C@]43C)[C@@H]12 (some centres unmarked) [YWZ-003] | 14.1 ± 0.83 | 10.9 ± 0.76 | 11.4 ± 0.89
5 | C=C(C)[C@@H]1CC[C@]2(COC(=O)C3CCCN3C(C)=O)CC[C@]3(C)C(CC[C@@H]4[C@@]5(C)CC[C@H](O)C(C)(C)[C@@H]5CC[C@]43C)[C@@H]12 (some centres unmarked) [YWZ-004] | 8.88 ± 0.62 | 2.13 ± 0.05 | 5.32 ± 0.21
6 | C=C(C)[C@@H]1CC[C@]2(COC(=O)C(CC(C)C)NC(C)=O)CC[C@]3(C)C(CC[C@@H]4[C@@]5(C)CC[C@H](O)C(C)(C)[C@@H]5CC[C@]43C)[C@@H]12 (some centres unmarked) [YWZ-005] | 18.1 ± 1.51 | 1.38 ± 0.04 | 19.7 ± 0.83
7 | C=C(C)[C@@H]1CC[C@]2(COC(=O)C(NC(C)=O)C(C)CC)CC[C@]3(C)C(CC[C@@H]4[C@@]5(C)CC[C@H](O)C(C)(C)[C@@H]5CC[C@]43C)[C@@H]12 (some centres unmarked) [YWZ-006] | 15 ± 1.31 | 7.26 ± 0.1 | 10.2 ± 0.69
